The subject of assay [1] is ABCA1. Description: ABCA1 gene expression by real-time RT-PCR in aortic smooth muscle cells. The format is cell-based, human. The note with it: normalized with HPRT, n=1 or 2. The protocol: (§1) The cells, grown to confluence according to the supplier's instructions (Lonza), were serum-depleted, pre-treated for 1h with increasing concentrations of ACT-333679 (i.e. MRE-269), and incubated in the presence of 10ng/mL PDGF-BB for 24h for Figures 4 and 5, and 6h for Figure 6. The treated cells were then incubated during 4 hours with 10µg/mL of fluorescently labelled DiI-oxLDL (Figures 4 and 5) and their ability to internalise the oxLDL was analysed by fluorescence microscopy (Figure 4) and FACS (Figure 5). FACS allows precise quantification of the number of fluorescent cells (i.e. those that have incorporated fluorescent oxLDL) and the intensity of the incorporated fluorescence per cell (i.e. the quantity of incorporated oxLDL/cell). Nuclei were stained with 4'-6'diamidino-2-phenylindol (DAPI) for analysis by fluorescence microscopy (Figure 4) or cells were directly analysed by flow cytometry (Figure 5). A detailed description of the protocol and apparatus used is given in the art.
(§2) Regarding Figure 4, representative images of the analysis of 5 fields examined in two experiments (n=2). […]
(§3) The expression of genes encoding transporters involved in cholesterol efflux (ABCA1: ATP-binding cassette A1 and ABCG1: ATP-binding cassette subfamily G member 1) was measured by real-time RT-PCR. […]

Assay [2] deals with vascular smooth muscle cells-derived foam cells. In words: Radioisotopic cholesterol efflux assay ([3H]-cholesterol-loaded VSMCs). The format is cell-based, human. The source says:
Primary cultures of aortic smooth muscle cells (AoSMC) obtained from a human diabetic and obese donor ([…]) were purchased from Lonza (D-AoSMC CloneticsTM). Cells were cultivated on 12-well plates at 50 000 cells/well in a growth medium composed of the Smooth Muscle Basal Medium (SmBM, Lonza) supplemented with 0.2% hEGF, 0.1% insulin, 0.2% hFGF-B, 5% Fetal Bovine Serum (FBS) and 0.1% gentamicin/amphotericin-B (SingleQuots, Lonza, concentrations not specified) according to Lonza's instructions. The foam phenotype was induced when cells reached a subconfluent density. During all the experiments, cells were maintained within an atmosphere enriched with 5% CO2 at 37°C and were used at passages ranging from 6 to 9. […]
Cholesterol efflux assay was performed as previously described by using [3H]-cholesterol-loaded VSMCs. […] Fractional cholesterol efflux, expressed as a percentage, was calculated as the amount of the radioactivity recovered in the cleared medium divided by the total radioactivity (radioactivity in the medium + radioactivity in the cells). Radioactivity in the cells was obtained after the lipid extraction in a mixture of hexane isopropanol (3:2 v/v) and was determined by liquid scintillation counting on a Wallac Trilux 1450 Microbeta scintillation counter (PerkinElmer, MA, USA). […]

Assay [3] relates to ABCG1. In words: ABCG1 gene expression by real-time RT-PCR in aortic smooth muscle cells. The format is cell-based, human. The note with it: normalized with HPRT, n=1 or 2. The procedure:
as §1, §2, §3

Assay [4] relates to human aortic smooth muscle cells. Description: Internalisation of DiI-oxLDL by aortic smooth muscle cells (fluorescence microscopy and FACS). In kind it is cell-based. The note with it: 1h pre-treatment, DiI-oxLDL 10 µg/mL 4 hours, read-out: concentration from which incorporation of oxLDL is inhibited.
Where [5] appears, read: pre-treated 1h, then PDGF-BB 10 ng/mL 6h.

Like-named read-outs stand apart in the source and are kept apart here.

Regarding `CC(C)N(CCCCOCC(=O)O)c1cnc(-c2ccccc2)c(-c2ccccc2)n1` [MRE-269], the “Expression of PDGF-BB-inhibited ABCA1 gene” value in assay [1] (setting [5]) is “partially restored”. For the same molecule, the Basal cholesterol efflux entry in assay [2] (MRE-269 100 nM alone, no rHDL, basal efflux about 2.6 %) was “not modified”. The cholesterol efflux in assay [2] (MRE-269 100 nM together with rHDL 20 µg/mL, 24h, n=6) was 20.21%. The “Expression of PDGF-BB-inhibited ABCG1 gene” value in assay [3] (setting [5]) was “partially restored”. For the same molecule, the minimal effective concentration was not below 0.005 µM in assay [4] (Homo sapiens, basal incorporation) and not below 0.005 µM in assay [4] (incorporation stimulated by PDGF-BB 10 ng/mL 24h).
With `CC(C)N(CCCCOCC(=O)NS(C)(=O)=O)c1cnc(-c2ccccc2)c(-c2ccccc2)n1` [Selexipag, 2-{4-[(5,6-diphenylpyrazin-2-yl)(isopropyl)amino]butoxy}-N-(methylsulfonyl)acetamide], the “basal expression of gene encoding ABCA1” value in assay [1] (basal, no PDGF-BB) is recorded as “increased”. Also, in assay [3] (basal, no PDGF-BB), the “basal expression of gene encoding ABCG1” value is recorded as “increased”.

For the origin of these results see patent EP4595961A1, “SELEXIPAG FOR USE IN THE TREATMENT AND/OR PREVENTION OF ATHEROSCLEROSIS” (SORBONNE UNIVERSITE, priority 2024, dated 2025).
